Measurements from publication PMC2862277 (The Journal of neuroscience : the official journal of the …, 2010).
“And” between values parts separate entries of the source, which are not always exact repeats. Equal values may be shown once. Read-outs that look alike come from different tables or passages of the source.

Experiments:
NR1(R523A)/NR2C = NR1(R523A)/NR2C (Rattus norvegicus, UniProt P35439+Q00961, R523A); assay: TEVC recording from Xenopus oocytes, mutant receptor; assay type: cell-based
NR1(Y692A)/NR2C = NR1(Y692A)/NR2C (Rattus norvegicus, UniProt P35439+Q00961, Y692A); assay: as above; assay type: cell-based
NR1/NR2B(E790A) = NR1/NR2B(E790A) (Rattus norvegicus, UniProt P35439+Q00960, E790A); assay: as above; assay type: cell-based
NR1(Y692A)/NR2A = NR1(Y692A)/NR2A (Rattus norvegicus, UniProt P35439+Q00959, Y692A); assay: as above; assay type: cell-based
NR1/NR2C [1] = target: T1, NR1/NR2C (Rattus norvegicus, UniProt P35439+Q00961); assay: Two electrode voltage clamp recording from Xenopus laevis oocytes; assay type: cell-based
NR1(R755A)/NR2C = NR1(R755A)/NR2C (Rattus norvegicus, UniProt P35439+Q00961, R755A); assay: TEVC recording from Xenopus oocytes, mutant receptor; assay type: cell-based
NR1/NR2C [2] = target: T1, NR1/NR2C; assay type: cell-based
NR1/NR2B(R693A) = NR1/NR2B(R693A) (Rattus norvegicus, UniProt P35439+Q00960, R693A); assay: TEVC recording from Xenopus oocytes, mutant receptor; assay type: cell-based
NR1/NR2C(Q800A) = NR1/NR2C(Q800A) (Rattus norvegicus, UniProt P35439+Q00961, Q787A); assay: as above; assay type: cell-based
NR1/NR2B = NR1/NR2B (Rattus norvegicus, UniProt P35439+Q00960); assay: Two electrode voltage clamp recording from Xenopus laevis oocytes; assay type: cell-based; conditions: relative to maximal glycine (100 μM), 100 μM glutamate
[3] = ref McBain et al., 1989; cited from earlier work
NR1/NR2C(Q800E) = NR1/NR2C(Q800E) (Rattus norvegicus, UniProt P35439+Q00961, Q787E); assay: TEVC recording from Xenopus oocytes, mutant receptor; assay type: cell-based
NR1(Y692A)/NR2D = NR1(Y692A)/NR2D (Rattus norvegicus, UniProt P35439+Q62645, Y692A); assay: as above; assay type: cell-based
NR1/NR2C [4] = target: T1, NR1/NR2C; assay: Maximum interval likelihood fitting of Scheme 1 to single channel data; assay type: cell-based
NR1/NR2C(S707N,R710P) = NR1/NR2C(S707N,R710P) (Rattus norvegicus, UniProt P35439+Q00961, R697P/S694N); assay: TEVC recording from Xenopus oocytes, mutant receptor; assay type: cell-based
NR1/NR2D(E791Q) = NR1/NR2D(E791Q) (Rattus norvegicus, UniProt P35439+Q62645, E814Q); assay: as above; assay type: cell-based
NR1/NR2C(R703A) = NR1/NR2C(R703A) (Rattus norvegicus, UniProt P35439+Q00961, R690A); assay: as above; assay type: cell-based
NR1/NR2A(E798Q) = NR1/NR2A(E798Q) (Rattus norvegicus, UniProt P35439+Q00959, E789Q); assay: as above; assay type: cell-based
NR1/NR2A = NR1/NR2A (Rattus norvegicus, UniProt P35439+Q00959); assay: Two electrode voltage clamp recording from Xenopus laevis oocytes; assay type: cell-based; conditions: relative to maximal glycine (100 μM), 100 μM glutamate
NR1(E781A)/NR2C = NR1(E781A)/NR2C (Rattus norvegicus, UniProt P35439+Q00961, E781A); assay: TEVC recording from Xenopus oocytes, mutant receptor; assay type: cell-based
NR1(E781A)/NR2B = NR1(E781A)/NR2B (Rattus norvegicus, UniProt P35439+Q00960, E781A); assay: as above; assay type: cell-based
NR1/NR2D = NR1/NR2D (Rattus norvegicus, UniProt P35439+Q62645); assay: Two electrode voltage clamp recording from Xenopus laevis oocytes; assay type: cell-based; conditions: relative to maximal glycine (100 μM), 100 μM glutamate
NR1/NR2C [5] = target: T1, NR1/NR2C; assay: Least-squares fitting of Scheme 1a to macroscopic currents; assay type: cell-based
NR1(Y692A)/NR2B = NR1(Y692A)/NR2B (Rattus norvegicus, UniProt P35439+Q00960, Y692A); assay: TEVC recording from Xenopus oocytes, mutant receptor; assay type: cell-based
NR1(R523A)/NR2B = NR1(R523A)/NR2B (Rattus norvegicus, UniProt P35439+Q00960, R523A); assay: as above; assay type: cell-based
NR1/NR2B(E790Q) = NR1/NR2B(E790Q) (Rattus norvegicus, UniProt P35439+Q00960, E790Q); assay: as above; assay type: cell-based
NR1/NR2C [6] = target: T1, NR1/NR2C; assay: Single-channel recording from outside-out patches containing one active channel; assay type: cell-based
[7] = 1 s concentration jump from DCS into glutamate plus DCS
[8] = Table 2, Scheme I (Monte Carlo simulation of gating model)
[9] = this particular patch (Figure 8B), MIL fit Scheme 1
[10] = 1 mM agonist + 1 mM glutamate, 0.5 mM Ca2+
[11] = 1 mM agonist + 1 mM glutamate, 0.5 mM Ca2+, reversal potential assumed 0 mV
[12] = Figure 7B, paired recordings glycine vs DCS
[13] = average of 6 individually fitted patches
[14] = composite open time histogram from 6 patches
[15] = composite shut time histogram from 6 patches
[16] = representative recording from one patch (Figure 8B)

T1 sequence (Q00961 20-1237, other chains not shown): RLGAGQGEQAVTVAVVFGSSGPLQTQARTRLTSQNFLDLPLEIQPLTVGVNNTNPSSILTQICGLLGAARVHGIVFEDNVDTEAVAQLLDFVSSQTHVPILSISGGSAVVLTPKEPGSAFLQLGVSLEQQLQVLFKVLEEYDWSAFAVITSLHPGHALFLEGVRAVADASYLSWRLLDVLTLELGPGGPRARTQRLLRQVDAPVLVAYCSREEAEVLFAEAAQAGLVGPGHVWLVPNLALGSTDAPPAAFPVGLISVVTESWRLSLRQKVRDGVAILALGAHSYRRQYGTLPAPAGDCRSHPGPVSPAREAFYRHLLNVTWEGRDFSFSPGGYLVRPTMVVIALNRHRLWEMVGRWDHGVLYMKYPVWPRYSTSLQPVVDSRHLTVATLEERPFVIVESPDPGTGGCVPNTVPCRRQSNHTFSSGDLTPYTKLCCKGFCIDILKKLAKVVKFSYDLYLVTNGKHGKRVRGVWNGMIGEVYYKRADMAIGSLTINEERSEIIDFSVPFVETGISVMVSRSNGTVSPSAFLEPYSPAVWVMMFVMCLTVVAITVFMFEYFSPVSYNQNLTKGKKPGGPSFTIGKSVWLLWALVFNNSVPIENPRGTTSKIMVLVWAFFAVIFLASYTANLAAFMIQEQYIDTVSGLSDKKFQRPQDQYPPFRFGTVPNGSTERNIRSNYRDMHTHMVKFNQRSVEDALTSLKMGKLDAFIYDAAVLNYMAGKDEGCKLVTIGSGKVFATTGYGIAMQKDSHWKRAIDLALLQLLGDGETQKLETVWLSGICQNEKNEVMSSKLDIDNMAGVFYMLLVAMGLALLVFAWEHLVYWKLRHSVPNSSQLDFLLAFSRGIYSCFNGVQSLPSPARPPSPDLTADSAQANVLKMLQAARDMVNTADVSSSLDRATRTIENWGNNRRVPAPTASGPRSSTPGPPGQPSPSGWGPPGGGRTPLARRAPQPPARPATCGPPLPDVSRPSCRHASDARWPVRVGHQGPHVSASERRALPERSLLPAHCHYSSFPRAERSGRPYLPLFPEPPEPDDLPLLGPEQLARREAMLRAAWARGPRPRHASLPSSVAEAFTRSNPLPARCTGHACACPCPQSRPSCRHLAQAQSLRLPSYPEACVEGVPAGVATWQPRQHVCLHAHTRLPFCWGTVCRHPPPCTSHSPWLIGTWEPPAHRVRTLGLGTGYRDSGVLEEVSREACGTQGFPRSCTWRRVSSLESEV
NR1(R755A)/NR2C, sequence (Q00961 20-1237, other chains not shown): as above
NR1/NR2B(E790Q), sequence (Q00960 27-1482 E790Q, other chains not shown): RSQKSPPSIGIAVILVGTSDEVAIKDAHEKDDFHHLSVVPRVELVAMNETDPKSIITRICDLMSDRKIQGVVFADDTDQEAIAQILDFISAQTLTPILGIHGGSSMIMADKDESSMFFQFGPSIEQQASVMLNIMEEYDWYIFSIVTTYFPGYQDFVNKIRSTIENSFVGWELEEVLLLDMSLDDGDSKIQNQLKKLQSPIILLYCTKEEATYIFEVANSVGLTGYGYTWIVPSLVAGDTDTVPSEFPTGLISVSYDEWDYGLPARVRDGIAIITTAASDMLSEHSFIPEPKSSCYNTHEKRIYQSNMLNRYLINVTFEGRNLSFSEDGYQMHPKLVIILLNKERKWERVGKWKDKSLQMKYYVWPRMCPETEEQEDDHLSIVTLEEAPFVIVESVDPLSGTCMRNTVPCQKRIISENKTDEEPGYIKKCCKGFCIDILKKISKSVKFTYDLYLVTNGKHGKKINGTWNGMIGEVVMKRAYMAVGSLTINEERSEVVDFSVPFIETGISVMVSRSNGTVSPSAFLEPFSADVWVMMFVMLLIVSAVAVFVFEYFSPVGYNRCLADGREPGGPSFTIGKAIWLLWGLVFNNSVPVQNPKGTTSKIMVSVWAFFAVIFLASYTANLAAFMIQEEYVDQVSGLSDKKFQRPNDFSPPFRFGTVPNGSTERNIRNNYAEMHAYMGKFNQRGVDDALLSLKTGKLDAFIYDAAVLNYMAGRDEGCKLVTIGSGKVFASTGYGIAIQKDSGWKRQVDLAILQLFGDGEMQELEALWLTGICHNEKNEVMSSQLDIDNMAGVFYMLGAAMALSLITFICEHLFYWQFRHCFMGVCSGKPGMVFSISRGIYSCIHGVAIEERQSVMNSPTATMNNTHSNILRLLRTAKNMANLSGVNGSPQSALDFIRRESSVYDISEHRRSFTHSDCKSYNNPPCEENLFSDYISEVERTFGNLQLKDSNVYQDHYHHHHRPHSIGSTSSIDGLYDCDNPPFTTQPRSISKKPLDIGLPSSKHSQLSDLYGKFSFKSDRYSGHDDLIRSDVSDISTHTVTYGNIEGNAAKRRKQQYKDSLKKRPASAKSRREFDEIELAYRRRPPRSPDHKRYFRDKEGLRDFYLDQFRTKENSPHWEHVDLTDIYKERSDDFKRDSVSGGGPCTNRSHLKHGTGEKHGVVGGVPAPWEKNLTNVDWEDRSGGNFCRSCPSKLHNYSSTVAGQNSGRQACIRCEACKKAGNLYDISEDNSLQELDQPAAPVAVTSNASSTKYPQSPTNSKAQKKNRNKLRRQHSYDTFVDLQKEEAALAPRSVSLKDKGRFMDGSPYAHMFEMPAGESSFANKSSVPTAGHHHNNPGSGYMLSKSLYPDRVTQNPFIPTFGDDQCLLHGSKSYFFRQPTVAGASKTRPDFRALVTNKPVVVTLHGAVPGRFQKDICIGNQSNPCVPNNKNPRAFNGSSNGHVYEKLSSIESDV
NR1/NR2C(R703A), sequence (Q00961 20-1237 R690A, other chains not shown): as the sequence (Q00961 20-1237, other chains not shown) above, with R671A counted along it
NR1/NR2B(E790A), sequence (Q00960 27-1482 E790A, other chains not shown): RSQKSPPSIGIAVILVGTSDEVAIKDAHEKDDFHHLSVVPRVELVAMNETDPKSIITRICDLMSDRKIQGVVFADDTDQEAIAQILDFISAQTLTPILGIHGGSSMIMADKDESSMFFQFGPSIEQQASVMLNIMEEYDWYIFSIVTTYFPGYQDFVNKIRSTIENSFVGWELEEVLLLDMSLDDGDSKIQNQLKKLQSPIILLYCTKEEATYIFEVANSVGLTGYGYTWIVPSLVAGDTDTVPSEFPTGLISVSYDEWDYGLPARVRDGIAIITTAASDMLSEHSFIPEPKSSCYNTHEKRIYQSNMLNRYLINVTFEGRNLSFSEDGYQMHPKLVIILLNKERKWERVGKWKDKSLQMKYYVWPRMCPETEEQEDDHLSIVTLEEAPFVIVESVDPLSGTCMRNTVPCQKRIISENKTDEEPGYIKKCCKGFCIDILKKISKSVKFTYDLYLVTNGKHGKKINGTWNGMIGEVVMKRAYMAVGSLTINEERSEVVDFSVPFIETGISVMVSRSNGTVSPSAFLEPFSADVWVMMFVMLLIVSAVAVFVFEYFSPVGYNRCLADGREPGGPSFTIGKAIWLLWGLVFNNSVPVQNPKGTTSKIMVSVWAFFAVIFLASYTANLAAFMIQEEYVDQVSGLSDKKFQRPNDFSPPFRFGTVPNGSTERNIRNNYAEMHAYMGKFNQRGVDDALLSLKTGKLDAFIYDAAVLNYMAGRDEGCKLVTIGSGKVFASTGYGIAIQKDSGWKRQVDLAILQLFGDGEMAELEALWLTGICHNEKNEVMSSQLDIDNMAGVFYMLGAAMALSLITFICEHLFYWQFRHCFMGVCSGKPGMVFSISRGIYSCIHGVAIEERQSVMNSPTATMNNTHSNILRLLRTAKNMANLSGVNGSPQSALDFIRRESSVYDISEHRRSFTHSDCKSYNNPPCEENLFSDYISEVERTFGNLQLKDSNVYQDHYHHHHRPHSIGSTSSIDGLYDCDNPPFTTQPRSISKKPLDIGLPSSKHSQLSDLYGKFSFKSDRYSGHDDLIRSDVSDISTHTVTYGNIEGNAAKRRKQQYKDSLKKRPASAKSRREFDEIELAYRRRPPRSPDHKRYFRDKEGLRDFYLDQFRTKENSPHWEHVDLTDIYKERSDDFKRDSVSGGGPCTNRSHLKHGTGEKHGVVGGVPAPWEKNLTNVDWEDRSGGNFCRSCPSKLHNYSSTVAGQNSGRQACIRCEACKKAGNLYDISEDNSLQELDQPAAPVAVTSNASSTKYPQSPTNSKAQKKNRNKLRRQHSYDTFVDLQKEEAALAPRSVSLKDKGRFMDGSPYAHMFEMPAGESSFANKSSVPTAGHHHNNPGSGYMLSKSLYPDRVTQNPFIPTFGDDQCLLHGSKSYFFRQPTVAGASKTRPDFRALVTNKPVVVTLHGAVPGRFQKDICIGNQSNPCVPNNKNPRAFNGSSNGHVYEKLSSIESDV
NR1/NR2C(Q800A), sequence (Q00961 20-1237 Q787A, other chains not shown): as the sequence (Q00961 20-1237, other chains not shown) above, with Q768A counted along it
NR1/NR2C(Q800E), sequence (Q00961 20-1237 Q787E, other chains not shown): as the sequence (Q00961 20-1237, other chains not shown) above, with Q768E counted along it
NR1/NR2C(S707N,R710P), sequence (Q00961 20-1237 S694N/R697P, other chains not shown): as the sequence (Q00961 20-1237, other chains not shown) above, with S675N, R678P counted along it
NR1(R523A)/NR2C, sequence (Q00961 20-1237, other chains not shown): as the sequence (Q00961 20-1237, other chains not shown) above
NR1(Y692A)/NR2C, sequence (Q00961 20-1237, other chains not shown): as above
NR1(E781A)/NR2C, sequence (Q00961 20-1237, other chains not shown): as above

N[C@@H]1CON=C1O [DCS, D-cycloserine]
DCS Efficacy (% glycine) (NR1(R523A)/NR2C): 254±20 % glycine | DCS Efficacy (% glycine) (NR1(Y692A)/NR2C): 59 ± 2 % glycine | DCS Efficacy (% glycine) (NR1/NR2B(E790A)): 68 ± 3 % glycine | DCS Efficacy (% glycine) (NR1(Y692A)/NR2A): 77 ± 1 % glycine | DCS Efficacy (% glycine) (NR1/NR2C [1]; NR1/NR2C, relative to maximal glycine (100 μM), 100 μM glutamate): 190 ± 6 % glycine and 190 % glycine | DCS Efficacy (% glycine) (NR1(R755A)/NR2C): 100 % glycine and 100 ± 5 % glycine | Rise time (NR1/NR2C [2]; [7]): 3.8 ± 0.7 ms | glutamate deactivation time course (NR1/NR2C [2]; [7]): 242 ± 50 ms | Deactivation (NR1/NR2C [2]; Table 3, Experimental): 130 to 160 ms | Desensitization (τ1) (NR1/NR2C [2]; Table 3, Experimental): 32 ms | Desensitization (τ2) (NR1/NR2C [2]; Table 3, Experimental): 540 ms | Rise time (NR1/NR2C [2]; Table 3, Experimental): 3.1 to 4.9 ms | DCS Efficacy (% glycine) (NR1/NR2B(R693A)): 68 ± 3 % glycine | DCS Efficacy (% glycine) (NR1/NR2C(Q800A)): 191 ± 7 % glycine | DCS Efficacy (% glycine) (NR1/NR2B): 65 ± 2 % glycine | pKa for exocyclic amine [3]: 7.5 | pKa for the exocyclic oxygen [3]: 4.5 | DCS Efficacy (% glycine) (NR1/NR2C(Q800E)): 130 ± 4 % glycine | DCS Efficacy (% glycine) (NR1(Y692A)/NR2D): 75 ± 1 % glycine | d1+ (NR1/NR2C [4]; MIL fit Scheme 1, six patches): 1.2 ± 0.4 s⁻¹ | d1− (NR1/NR2C [4]; MIL fit Scheme 1, six patches): 4.2 ± 1.0 s⁻¹ | d2+ (NR1/NR2C [4]; MIL fit Scheme 1, six patches): 25 ± 8 s⁻¹ | d2− (NR1/NR2C [4]; MIL fit Scheme 1, six patches): 38 ± 7 s⁻¹ | k1+ (NR1/NR2C [4]; MIL fit Scheme 1, six patches): 420 ± 80 s⁻¹ | k1− (NR1/NR2C [4]; MIL fit Scheme 1, six patches): 1270 ± 340 s⁻¹ | k2+ (forward rate of the fast gating step) (NR1/NR2C [4]; MIL fit Scheme 1, six patches): 1395 ± 215 s^−1 and 1395± 215 ^* s^−1 | k2− (NR1/NR2C [4]; MIL fit Scheme 1, six patches): 17510 ± 2135 s⁻¹ | k3+ (NR1/NR2C [4]; MIL fit Scheme 1, six patches): 4795 ± 815 s⁻¹ | k3− (closing rate) (NR1/NR2C [4]; MIL fit Scheme 1, six patches): 2150 ± 210 s^−1 and 2150 ± 210 ^* s^−1 | k4+ (NR1/NR2C [4]; MIL fit Scheme 1, six patches): 75 ± 35 s⁻¹ | k4− (NR1/NR2C [4]; MIL fit Scheme 1, six patches): 1070 ± 130 s⁻¹ | MOT (mean open time) (NR1/NR2C [4]; [8]): 0.61 ms | Po (NR1/NR2C [4]; [8]): 0.029 | LL/event (log likelihood per event) (NR1/NR2C [4]; goodness of MIL fit of Scheme 1): 4.86 ± 0.05 | rate constant k2+ (NR1/NR2C [4]; [9]): 2150 s⁻¹ | rate constant k3− (NR1/NR2C [4]; [9]): 2388 s⁻¹ | DCS Efficacy (% glycine) (NR1/NR2C(S707N,R710P)): 190 ± 7 % glycine | DCS Efficacy (% glycine) (NR1/NR2D(E791Q)): 110 ± 1 % glycine | DCS Efficacy (% glycine) (NR1/NR2C(R703A)): 190 ± 4 % glycine | DCS Efficacy (% glycine) (NR1/NR2A(E798Q)): 90 ± 2 % glycine | DCS Efficacy (% glycine) (NR1/NR2A): 90 ± 2 % glycine | DCS Efficacy (% glycine) (NR1(E781A)/NR2C): 150 ± 10 % glycine | DCS Efficacy (% glycine) (NR1(E781A)/NR2B): 10 ± 1 % glycine | DCS Efficacy (% glycine) (NR1/NR2D): 94 ± 2 % glycine | Deactivation (NR1/NR2C [5]; Scheme Ia): 245 ms | Desensitization (τ1) (NR1/NR2C [5]; Scheme Ia): 15 ms | Desensitization (τ2) (NR1/NR2C [5]; Scheme Ia): 130 ms | Peak Po (NR1/NR2C [5]; Scheme Ia): 0.042 | Rise time (NR1/NR2C [5]; Scheme Ia): 2.4 ms | Steady state Po (NR1/NR2C [5]; Scheme Ia): 0.030 | Residual (normalized residual sum of squares) (NR1/NR2C [5]; Scheme Ia macroscopic fit): 2.67 × 10^−3 | d1+ (NR1/NR2C [5]; Scheme Ia macroscopic fit): 1.4 s⁻¹ | d1− (NR1/NR2C [5]; Scheme Ia macroscopic fit): 5.7 s⁻¹ | d2+ (NR1/NR2C [5]; Scheme Ia macroscopic fit): 6.7 s⁻¹ | d2− (NR1/NR2C [5]; Scheme Ia macroscopic fit): 16 s⁻¹ | b+ (agonist binding rate) (NR1/NR2C [5]; glutamate binding step, Scheme Ia, with the labelled NR1 agonist): 560000 M⁻¹ s⁻¹ | b− (unbinding rate) (NR1/NR2C [5]; glutamate unbinding step, Scheme Ia, with the labelled NR1 agonist): 3.4 s⁻¹ | DCS Efficacy (% glycine) (NR1(Y692A)/NR2B): 46 ± 1 % glycine | DCS Efficacy (% glycine) (NR1(R523A)/NR2B): 31±2 % glycine | DCS Efficacy (% glycine) (NR1/NR2B(E790Q)): 78 ± 1 % glycine | area of larger conductance level (NR1/NR2C [6]; [10]): 72 ± 8% | area of smaller conductance level (NR1/NR2C [6]; [10]): 28 ± 5% | conductance level (larger) (NR1/NR2C [6]; [11]): 45 ± 5 pS | conductance level (smaller) (NR1/NR2C [6]; [11]): 28 ± 3 pS | mean duration of all open periods (NR1/NR2C [6]; 1 mM agonist + 1 mM glutamate, 6 one-channel patches): 0.61 ± 0.06 ms | open probability (Po) (NR1/NR2C [6]; 1 mM agonist + 1 mM glutamate, patches with a single active channel): 0.029 ± 0.006 | mean open time, % of control (glycine) (NR1/NR2C [6]; DCS vs glycine, paired patches): 132% | open probability, % of control (glycine) (NR1/NR2C [6]; DCS vs glycine, paired patches): 163% | mean open time increased by, in the presence of DCS (NR1/NR2C [6]; [12]): 131 ± 4% | open probability increased by, in the presence of DCS (NR1/NR2C [6]; [12]): 194 ± 33% | MOT (mean open time) (NR1/NR2C [6]; Table 2, Experimental): 0.57 ms | Steady state Po (NR1/NR2C [6]; Table 3, Experimental): 0.028 | area of shut τ2 (NR1/NR2C [6]; [13]): 10% | area of shut τ3 (NR1/NR2C [6]; [13]): 30% | area of shut τ4 (NR1/NR2C [6]; [13]): 36% | area of shut τ5 (NR1/NR2C [6]; [13]): 5% | shut time constant τ1 (NR1/NR2C [6]; [13]): 0.04 ± 0.005 ms | shut time constant τ2 (NR1/NR2C [6]; [13]): 0.55 ± 0.16 ms | shut time constant τ3 (NR1/NR2C [6]; [13]): 8.5 ± 1.2 ms | shut time constant τ4 (NR1/NR2C [6]; [13]): 34 ± 4 ms | shut time constant τ5 (NR1/NR2C [6]; [13]): 220 ± 79 ms | area of open time τ1 (NR1/NR2C [6]; [14]): 49% | area of open time τ2 (NR1/NR2C [6]; [14]): 51% | open time constant τ1 (NR1/NR2C [6]; [14]): 0.32 ms | open time constant τ2 (NR1/NR2C [6]; [14]): 0.76 ms | area of shut τ2 (NR1/NR2C [6]; [15]): 10% | area of shut τ3 (NR1/NR2C [6]; [15]): 36% | area of shut τ4 (NR1/NR2C [6]; [15]): 32% | area of shut τ5 (NR1/NR2C [6]; [15]): 3% | shut time constant τ1 (NR1/NR2C [6]; [15]): 0.037 ms | shut time constant τ2 (NR1/NR2C [6]; [15]): 0.48 ms | shut time constant τ3 (NR1/NR2C [6]; [15]): 9.5 ms | shut time constant τ4 (NR1/NR2C [6]; [15]): 36 ms | shut time constant τ5 (NR1/NR2C [6]; [15]): 248 ms | apparent mean open time (NR1/NR2C [6]; [16]): 0.52 ms | open probability (NR1/NR2C [6]; [16]): 0.026

N[C@@H](CCC(=O)O)C(=O)O [glutamate]
EC50 (NR1/NR2C [1]; read-out: EC50 for glutamate): 420 ± 40 nM
